# Source: US9125913B2, “Bcl-2-selective apoptosis-inducing agents for the treatment of cancer and immune diseases” (AbbVie Inc., priority 2008, dated 2015)
# Test system: GST-Bcl-2
# Test: TR-FRET binding assay, Bcl-2
# Conditions: TR-FRET Ki values
# Method: Tb-anti-GST antibody was purchased from Invitrogen (Catalog No. PV4216).
# Representative compounds were serially diluted in dimethyl sulfoxide (DMSO) starting at 50 μM (2× starting concentration; 10% DMSO) and 10 μL were transferred into a 384-well plate.
# The samples were then mixed on a shaker for 1 minute and incubated for an additional 3 hours at room temperature. For each assay, the probe/antibody and protein/probe/antibody were included on each assay plate as negative and positive controls, respectively. Fluorescence was measured on the Envision (Perkin Elmer) using a 340/35 nm excitation filter and 520/525 (F-Bak peptide) and 495/510 nm (Tb-labeled anti-Histidine antibody) emission filters.
# The inhibition constant (Ki) is the dissociation constant of an enzyme-inhibitor complex or a protein/small molecule complex, wherein the small molecule is inhibiting binding of one protein to another protein or peptide. […] Inhibition constants were determined using Wang's equation (Wang Z-X., An Exact Mathematical Expression For Describing Competitive Binding Of Two Different Ligands To A Protein Molecule. FEBS Lett. 1995, 360:111-4).
row,Compound,Binding selectivity ratio (Bcl-XL Ki/Bcl-2 Ki)
1,"4-(4-{[2-(4-chlorophenyl)-4,4-dimethylcyclohex-1-en-1-yl]methyl}piperazin-1-yl)-N-{[4-({[Cis-4-hydroxy-1-adamantyl]methyl}amino)-3-nitrophenyl]sulfonyl}-2-(1H-indol-5-yloxy)benzamide [EXAMPLE 322]",>3591.4
2,"CC1(C)CC(c2ccc(Cl)cc2)=C(CN2CCN(c3ccc(C(=O)NS(=O)(=O)c4ccc(NCC5CCOCC5)c([N+](=O)[O-])c4)c(Oc4ccc5[nH]ccc5c4)c3)CC2)CO1 [EXAMPLE 182, 4-(4-{[4-(4-chlorophenyl)-6,6-dimethyl-5,6-dihydro-2H-pyran-3-yl]methyl}piperazin-1-yl)-2-(1H-indol-5-yloxy)-N-({3-nitro-4-[(tetrahydro-2H-pyran-4-ylmethyl)amino]phenyl}sulfonyl)benzamide]",>7595.8
3,"CN1CCC(O)(CNc2ccc(S(=O)(=O)NC(=O)c3ccc(N4CCN(CC5=C(c6ccc(Cl)cc6)CC(C)(C)CC5)CC4)cc3Oc3ccc4[nH]ccc4c3)cc2[N+](=O)[O-])CC1 [EXAMPLE 183, 4-(4-{[2-(4-chlorophenyl)-4,4-dimethylcyclohex-1-en-1-yl]methyl}piperazin-1-yl)-N-[(4-{[(4-hydroxy-1-methylpiperidin-4-yl)methyl]amino}-3-nitrophenyl)sulfonyl]-2-(1H-indol-5-yloxy)benzamide]",240.5
4,"CN1CCC(Nc2ccc(S(=O)(=O)NC(=O)c3ccc(N4CCN(CC5=C(c6ccc(Cl)cc6)CC(C)(C)CC5)CC4)c(F)c3Oc3ccc4[nH]ccc4c3)cc2[N+](=O)[O-])CC1 [EXAMPLE 184, 4-(4-{[2-(4-chlorophenyl)-4,4-dimethylcyclohex-1-en-1-yl]methyl}piperazin-1-yl)-3-fluoro-2-(1H-indol-5-yloxy)-N-({4-[(1-methylpiperidin-4-yl)amino]-3-nitrophenyl}sulfonyl)benzamide]",>2345.3
5,"CC1(C)CCC(CN2CCN(c3ccc(C(=O)NS(=O)(=O)c4ccc(NC5CCN(C6CCOCC6)CC5)c([N+](=O)[O-])c4)c(Oc4ccc5[nH]ccc5c4)c3F)CC2)=C(c2ccc(Cl)cc2)C1 [EXAMPLE 185, 4-(4-{[2-(4-chlorophenyl)-4,4-dimethylcyclohex-1-en-1-yl]methyl}piperazin-1-yl)-3-fluoro-2-(1H-indol-5-yloxy)-N-({3-nitro-4-[(1-tetrahydro-2H-pyran-4-ylpiperidin-4-yl)amino]phenyl}sulfonyl)benzamide]",361.5
6,"CN1CCC(O)(CNc2ccc(S(=O)(=O)NC(=O)c3ccc(N4CCN(CC5=C(c6ccc(Cl)cc6)CC(C)(C)CC5)CC4)cc3Oc3cccc4[nH]ccc34)cc2[N+](=O)[O-])CC1 [EXAMPLE 186, 4-(4-{[2-(4-chlorophenyl)-4,4-dimethylcyclohex-1-en-1-yl]methyl}piperazin-1-yl)-N-[(4-{[(4-hydroxy-1-methylpiperidin-4-yl)methyl]amino}-3-nitrophenyl)sulfonyl]-2-(1H-indol-4-yloxy)benzamide]",1069.2
7,"CC1(C)CCC(CN2CCN(c3ccc(C(=O)NS(=O)(=O)c4ccc(N[C@@H]5CCN(Cc6ccccc6)C[C@@H]5O)c([N+](=O)[O-])c4)c(Oc4ccc5[nH]ccc5c4)c3)CC2)=C(c2ccc(Cl)cc2)C1 [EXAMPLE 187, N-[(4-{[(3S,4R)-1-benzyl-3-hydroxypiperidin-4-yl]amino}-3-nitrophenyl)sulfonyl]-4-(4-{[2-(4-chlorophenyl)-4,4-dimethylcyclohex-1-en-1-yl]methyl}piperazin-1-yl)-2-(1H-indol-5-yloxy)benzamide]",>2003.9
8,"CC1(C)CCC(CN2CCN(c3ccc(C(=O)NS(=O)(=O)c4ccc(NCC5(N)CCOCC5)c([N+](=O)[O-])c4)c(Oc4ccc5[nH]ccc5c4)c3)CC2)=C(c2ccc(Cl)cc2)C1 [EXAMPLE 188, N-[(4-{[(4-aminotetrahydro-2H-pyran-4-yl)methyl]amino}-3-nitrophenyl)sulfonyl]-4-(4-{[2-(4-chlorophenyl)-4,4-dimethylcyclohex-1-en-1-yl]methyl}piperazin-1-yl)-2-(1H-indol-5-yloxy)benzamide]",1135.4
9,"COCCN1CCC(Nc2ccc(S(=O)(=O)NC(=O)c3ccc(N4CCN(CC5=C(c6ccc(Cl)cc6)CC(C)(C)CC5)CC4)cc3Oc3ccc4[nH]ccc4c3)cc2[N+](=O)[O-])CC1 [EXAMPLE 189, 4-(4-{[2-(4-chlorophenyl)-4,4-dimethylcyclohex-1-en-1-yl]methyl}piperazin-1-yl)-2-(1H-indol-5-yloxy)-N-[(4-{[1-(2-methoxyethyl)piperidin-4-yl]amino}-3-nitrophenyl)sulfonyl]benzamide]",358.6
10,"CN1CCN(Nc2ccc(S(=O)(=O)NC(=O)c3ccc(N4CCN(CC5=C(c6ccc(Cl)cc6)CC(C)(C)CC5)CC4)cc3Oc3cccc4[nH]ccc34)cc2[N+](=O)[O-])CC1 [EXAMPLE 190, 4-(4-{[2-(4-chlorophenyl)-4,4-dimethylcyclohex-1-en-1-yl]methyl}piperazin-1-yl)-2-(1H-indol-4-yloxy)-N-({4-[(4-methylpiperazin-1-yl)amino]-3-nitrophenyl}sulfonyl)benzamide]",189.6
11,"CC1(C)CCC(CN2CCN(c3ccc(C(=O)NS(=O)(=O)c4ccc(NC5CCN(CCO)CC5)c([N+](=O)[O-])c4)c(Oc4cccc5[nH]ccc45)c3)CC2)=C(c2ccc(Cl)cc2)C1 [EXAMPLE 191, 4-(4-{[2-(4-chlorophenyl)-4,4-dimethylcyclohex-1-en-1-yl]methyl}piperazin-1-yl)-N-[(4-{[1-(2-hydroxyethyl)piperidin-4-yl]amino}-3-nitrophenyl)sulfonyl]-2-(1H-indol-4-yloxy)benzamide]",125.2
12,"COCCN1CCC(Nc2ccc(S(=O)(=O)NC(=O)c3ccc(N4CCN(CC5=C(c6ccc(Cl)cc6)CC(C)(C)CC5)CC4)cc3Oc3cccc4[nH]ccc34)cc2[N+](=O)[O-])CC1 [EXAMPLE 194, 4-(4-{[2-(4-chlorophenyl)-4,4-dimethylcyclohex-1-en-1-yl]methyl}piperazin-1-yl)-2-(1H-indol-4-yloxy)-N-[(4-{[1-(2-methoxyethyl)piperidin-4-yl]amino}-3-nitrophenyl)sulfonyl]benzamide]",212.4
13,"CC1(C)CCC(CN2CCN(c3ccc(C(=O)NS(=O)(=O)c4ccc(NC5CCN(CCCO)CC5)c([N+](=O)[O-])c4)c(Oc4cccc5[nH]ccc45)c3)CC2)=C(c2ccc(Cl)cc2)C1 [EXAMPLE 195, 4-(4-{[2-(4-chlorophenyl)-4,4-dimethylcyclohex-1-en-1-yl]methyl}piperazin-1-yl)-N-[(4-{[1-(3-hydroxypropyl)piperidin-4-yl]amino}-3-nitrophenyl)sulfonyl]-2-(1H-indol-4-yloxy)benzamide]",170.2
14,"CN(C)CCCc1cccc(-c2ccc(Cl)cc2)c1CN1CCN(c2ccc(C(=O)NS(=O)(=O)c3ccc(NCC4CCOCC4)c([N+](=O)[O-])c3)c(Oc3cccc4[nH]ccc34)c2)CC1 [EXAMPLE 196, 4-[4-({4′-chloro-3-[3-(dimethylamino)propyl]-1,1′-biphenyl-2-yl}methyl)piperazin-1-yl]-2-(1H-indol-4-yloxy)-N-({3-nitro-4-[(tetrahydro-2H-pyran-4-ylmethyl)amino]phenyl}sulfonyl)benzamide]",>20552.4
15,"CC1(C)CCC(CN2CCN(c3ccc(C(=O)NS(=O)(=O)c4ccc(NC5CCN(CCCO)CC5)c([N+](=O)[O-])c4)c(Oc4ccc5[nH]ccc5c4)c3)CC2)=C(c2ccc(Cl)cc2)C1 [EXAMPLE 197, 4-(4-{[2-(4-chlorophenyl)-4,4-dimethylcyclohex-1-en-1-yl]methyl}piperazin-1-yl)-N-[(4-{[1-(3-hydroxypropyl)piperidin-4-yl]amino}-3-nitrophenyl)sulfonyl]-2-(1H-indol-5-yloxy)benzamide]",193
16,"O=C(NS(=O)(=O)c1ccc(NCC2CCOCC2)c([N+](=O)[O-])c1)c1ccc(N2CCN(Cc3cc(N4CCOCC4)ccc3-c3ccc(Cl)cc3)CC2)cc1Oc1cccc2[nH]ccc12 [EXAMPLE 198, 4-{4-[(4′-chloro-4-morpholin-4-yl-1,1′-biphenyl-2-yl)methyl]piperazin-1-yl}-2-(1H-indol-4-yloxy)-N-({3-nitro-4-[(tetrahydro-2H-pyran-4-ylmethyl)amino]phenyl}sulfonyl)benzamide]",>166.4
17,"CN(C)CCOc1cccc(-c2ccc(Cl)cc2)c1CN1CCN(c2ccc(C(=O)NS(=O)(=O)c3ccc(NC4CCN(C5CCOCC5)CC4)c([N+](=O)[O-])c3)c(Oc3cccc4[nH]ccc34)c2)CC1 [EXAMPLE 199, 4-[4-({4′-chloro-3-[2-(dimethylamino)ethoxy]-1,1′-biphenyl-2-yl}methyl)piperazin-1-yl]-2-(1H-indol-4-yloxy)-N-({3-nitro-4-[(1-tetrahydro-2H-pyran-4-ylpiperidin-4-yl)amino]phenyl}sulfonyl)benzamide]",369.8
18,"CCN(CC)C1CCC(Nc2ccc(S(=O)(=O)NC(=O)c3ccc(N4CCN(CC5=C(c6ccc(Cl)cc6)CC(C)(C)CC5)CC4)cc3Oc3ccc4[nH]ccc4c3)cc2[N+](=O)[O-])CC1 (stereo not drawn) [EXAMPLE 201, 4-(4-{[2-(4-chlorophenyl)-4,4-dimethylcyclohex-1-en-1-yl]methyl}piperazin-1-yl)-N-[(4-{[4-(diethylamino)cyclohexyl]amino}-3-nitrophenyl)sulfonyl]-2-(1H-indol-5-yloxy)benzamide]",196.6
